Laboratory results from patent US6933308B2 (Bristol-Myers Squibb Company, priority 2002, dated 2005).
pEC50: −log10 of the molar value.

Legend:
KCNQ channels = assay: Thallium flux assay for KCNQ channel openers; assay type: cell-based; settings: HEK-293 cells stably transfected with a KCNQ family member; for Min conc. response: minimal active concentration: lowest concentration giving signal >= 4 SD of negative controls; for pEC50: thallium flux, 10 point concentration series
Description: Thallium Flux Assay for KCNQ Channel Openers.
The thallium assay is a modification of that published by Weaver and is referenced in its entirety (Weaver, C. D. WO 02/31508, 2002).
Approximately 20,000 cells/well of an HEK-293 cell line stably transfected with one of the members of the KCNQ family were plated into clear-bottom, black-walled, poly-D-lysine coated, 384 well assay plates in 20 μl/well of low chloride plating medium. Low chloride plating medium was composed of the following: sodium gluconate, 109 mM; potassium gluconate, 5.4 mM; hemi-calcium gluconate, 3.6 mM; magnesium sulfate, 0.8 mM; sodium bicarbonate, 26.2 mM; sodium phosphate monobasic, 1.2 mM; glutamine, 2 mM; glucose, 5 mM; 4-(2-hydroxyethyl)-1-piperazineethanesulfonic acid (HEPES) (pH 7.3) 10 mM, MEM vitamin solution (10× concentration of vitamins, Gibco/LifeTechnologies 11120-052) and MEM amino acid solution (1× concentration of amino acids, Gibco/LifeTechnologies 11130-051).
Following overnight incubation in a 5% CO2 incubator at 37° C., the cells in the plates were loaded with 20 μl/well of a dye loading solution containing the commercially available thallium-sensitive fluorescent dye BTC-AM, the acetomethoxy ester of BTC (see U.S. Pat. No. 5,501,980) (2 μM) and pluronic acid F-127 (Molecular Probes P 6867) (0.02% w/v) in chloride free assay buffer. Chloride free assay buffer was composed of the following: sodium gluconate, 140 mM; potassium gluconate, 2.5 mM; hemi-calcium gluconate, 6 mM; hemi-magnesium gluconate, 2 mM; glucose, 5 mM; HEPES (pH 7.3), 10 mM.
Following incubation in the dye loading solution for from 45-90 min at room temperature, the dye loading solution was removed by aspiration and replaced with 40 μl/well of chloride free assay buffer.
Prior to addition to cell plates, test compound and standard compounds were dissolved in DMSO to 3 mM concentration. Compounds were then diluted from the 3 mM stock to 100-fold over the final assay concentration in DMSO. Finally, compounds in DMSO were diluted from 100-fold over the final assay concentration to 5-fold over the final assay concentration in chloride free assay buffer.
Ten μl/well of compounds at 5-fold over the final assay concentration were then added to the cell plates. This represents a 1:5 dilution, yielding the final test concentration. The wells used for test compounds were A1-P20. Wells A21-P22 contained a standard opener and a maximally efficacious concentration (positive control). Wells A23-P24 contained chloride free assay buffer containing 1% DMSO (negative control).
Following addition of test compounds, the plates were loaded onto the Molecular Devices FLIPR. The 488 nm line of the argon laser was used to excite the BTC and the emission filter was a 540(+/−30) nm. Images were collected at 1 Hz. Ten seconds of baseline were collected and then the FLIPR was used to add 13 μl/well of a stimulus buffer composed of 7.5 mM Tl2SO4 in chloride free assay buffer. Images were collected for an additional 60 seconds.
For data analysis, the amplitude of the average of the negative controls was subtracted from all wells. The amplitudes of the test compounds were then compared to the value of four standard deviations of the negative control wells. The lowest concentration of a test compound sufficient to generate a signal amplitude greater than or equal to four standard deviations from the amplitude of the negative controls was defined as the minimal active concentration.
For generating EC50 values, compounds were serially diluted in 1:3 volume increments to produce a 10 point concentration series. EC50 values were calculated by fitting the resulting amplitudes to a single-site logistic equation. EC50 was defined as the concentration of test compound required to yield 50% of the maximal response. Maximal response (Maximal opening) was the largest signal amplitude divided by the negative control amplitude generated by any concentration of a test compound. […]

mKCNQ2 channels = target: T1, mKCNQ2 channels (Mus musculus, UniProt Q9Z351); assay: KCNQ whole-cell patch-clamp; assay type: cell-based; settings: for pEC50: HEK 293 stable cell line expressing mKCNQ2, steady-state current at end of 600 ms step from holding potential -80 mV; for verified in a patch-clamp assay measuring the effect of compounds on the current of KCNQ channels: HEK 293 cells expressing mKCNQ2
T1 construct: expressed in transfected cells
Description: Examples 8 and 11 were verified in a patch-clamp assay measuring the effect of compounds on the current of KCNQ channels.
KCNQ Patch-clamp. Whole-cell patch-clamp recordings were made from an HEK 293 stable cell line expressing mKCNQ2 channels, maintained in culture for 1-2 days. Patch pipettes had initial resistances of 2.5-4 MΩ. Currents were recorded with an EPC-9 amplifier (HEKA, Lambrecht, Germany) controlled with software (Pulse, HEKA) run on a standard lab PC. Series resistance compensation was used during current recording, and set at 80%. The series resistance (R) and cell capacitance (C) were determined electronically by subtracting the capacitive currents at the onset and offset of a 5 mV voltage step. The cancellation of whole-cell capacitive transients was virtually complete in all cells. Analog current signals were low-pass filtered at 2.9 kHz using a four-pole Bessel filter −3 dB) and stored on a local network server computer at a sampling rate of 1.5 kHz. All recordings were performed at room temperature (20-22° C.). The pipette solution contained (mM):KCl, 150; CaCl2, 2.5; EGTA, 5; MgCl2, 1; HEPES, 10; pH to 7.3 with KOH, and Osmolality of 290-300 mOsm. The extracellular solution contained (mM): NaCl, 140; KCl, 2.5; CaCl2, 2.5; MgCl2, 1; glucose, 10; HEPES, 10; pH to 7.3 with NaOH, and Osmolality of […].
Concentration response data were generated by measuring the difference in the steady-state amplitude of current in the presence of compound at the end of a 600 ms voltage-clamp step from a holding potential of −80 mV. The concentration-response data were fitted with Hill-type equations: I=Imax/(1+EC50/[A]^nH), where I is the steady-state current at a given concentration of agonist [A]; and Imax, EC50 and nH are parameters estimated from the curve fit. In some cases the concentration-response data were fitted with equations consisting of the sum of two Hill-type components. Current-voltage (I/V) relationships for agonist-evoked currents were obtained by performing 600 ms voltage steps (−110 mV to +40 mV) in the absence and presence of agonist.

SMILES | Min conc. response (KCNQ channels) [µM] | pEC50 (KCNQ channels) | pEC50 (mKCNQ2 channels) | verified in a patch-clamp assay measuring the effect of compounds on the current of KCNQ channels (mKCNQ2 channels)
CC(NC(=O)c1sc(CCN2CCSCC2)nc1C(F)(F)F)c1cccc(C(F)(F)F)c1 (centres unmarked) [Example 18, 2-[2-(4-thiomorpholinyl)ethyl]-4-(trifluoromethyl)-N-[1-[3-(trifluoromethyl)phenyl]ethyl]-5-thiazolecarboxamide] | 3 | 6.00 to 7.30 | 5.91 | –
CCN(CC)CCc1nc(C(F)(F)F)c(C(=O)NC(C)c2cccc(OC(F)(F)F)c2)s1 (centres unmarked) [Example 15] | 0.3 | 6.00 to 7.30 | 5.45 | –
C[C@H](NC(=O)c1sc(CCN(C)Cc2ccco2)nc1C(F)(F)F)c1cccc(N2CCOCC2)c1 [Example 11, 2-[2-[(2-furanylmethyl)methylamino]ethyl]-N-[1-[3-(4-morpholinyl)phenyl]ethyl]-4-(trifluoromethyl)-5-thiazolecarboxamide] | 30 | 4.70 to 6.00 | – | verified
CC(NC(=O)c1sc(CCN2CCOCC2)nc1C(F)(F)F)c1cccc(-c2cccnc2)c1 (centres unmarked) [Example 8] | 10 | 4.70 to 6.00 | – | verified
CC(NC(=O)c1sc(CCN2CCC(O)CC2)nc1C(F)(F)F)c1cccc(OC(F)(F)F)c1 (centres unmarked) [Example 26, 2-[2-(4-hydroxy-1-piperidinyl)ethyl]-4-(trifluoromethyl)-N-[1-[3-(trifluoromethoxy)phenyl]ethyl]-5-thiazolecarboxamide] | 10 | 4.70 to 6.00 | – | –
